Source: ChEMBL document CHEMBL3217730, “Determination of structural requirements of influenza neuraminidase type A inhibitors and binding interaction analysis with the active site of A/H1N1 by 3D-QSAR CoMFA and CoMSIA modeling” (Medchemcomm, 2011)

Molecular target: Neuraminidase (Influenza A virus, UniProt B4URF0)
Assay: Inhibition of Influenza virus neuraminidase A
Parameters: species or system unidentified influenza virus

Sequence of Neuraminidase (B4URF0 whole entry): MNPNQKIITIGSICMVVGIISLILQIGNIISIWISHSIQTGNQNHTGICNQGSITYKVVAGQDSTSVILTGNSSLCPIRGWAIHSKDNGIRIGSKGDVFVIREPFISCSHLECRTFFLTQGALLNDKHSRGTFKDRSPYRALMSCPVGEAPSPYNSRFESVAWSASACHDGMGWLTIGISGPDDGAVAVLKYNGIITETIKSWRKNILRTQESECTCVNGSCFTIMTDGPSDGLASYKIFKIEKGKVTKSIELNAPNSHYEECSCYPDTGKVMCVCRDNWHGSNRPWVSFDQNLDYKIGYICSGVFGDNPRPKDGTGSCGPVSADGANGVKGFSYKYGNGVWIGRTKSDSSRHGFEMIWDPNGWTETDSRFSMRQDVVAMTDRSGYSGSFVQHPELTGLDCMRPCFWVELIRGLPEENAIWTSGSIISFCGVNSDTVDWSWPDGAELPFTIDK

SMILES | IC50 (read-out: IC50) | IC50 (read-out: pIC50 (converted)) | pIC50
CC[C@@H](C)O[C@@H]1C=C(C(=O)O)C[C@H](NC(=N)N)[C@H]1NC(C)=O | 0.5 µM | 0.0005 µM | 
CC(=O)N[C@@H]1[C@@H](N)CC(C(=O)O)=C[C@H]1Oc1ccccc1 | 530 µM | 0.531 µM | 
CCC(C)O[C@@H]1C=C(C(=O)O)C[C@H](N)[C@H]1NC(C)=O (stereo partly drawn) | 10 µM |  | 
CCO[C@@H]1C=C(C(=O)O)C[C@H](N)[C@H]1NC(C)=O | 2000 µM | 2 µM | 
CCCCCCC[C@H](CC)O[C@@H]1C=C(C(=O)O)C[C@H](N)[C@H]1NC(C)=O | 1 µM | 0.001 µM | 
CCCO[C@@H]1C=C(C(=O)O)C[C@H](N=C(N)N)[C@H]1NC(C)=O | 2 µM | 0.002 µM | 
CCCCCCCCCCO[C@@H]1C=C(C(=O)O)C[C@H](N)[C@H]1NC(C)=O | 600 µM | 0.601 µM | 
C=CC[C@H](CC)O[C@@H]1C=C(C(=O)O)C[C@H](N)[C@H]1NC(C)=O | 1 µM | 0.001 µM | 
CO[C@@H]1C=C(C(=O)O)C[C@H](N)[C@H]1NC(C)=O | 3700 µM | 3.71 µM | 
CC(=O)N[C@H]1[C@H](O)C=C(C(=O)O)C[C@@H]1N=C(N)N | 100 µM | 0.1 µM | 
CC[C@@H](CCC1CCCCC1)O[C@@H]1C=C(C(=O)O)C[C@H](N)[C@H]1NC(C)=O | 1 µM | 0.001 µM | 
CCC(CC)C(=O)N1C[C@@H](N)[C@@H](C(=O)O)C1 | 22 µM |  | 
CCN(CC)C(=O)N1C[C@@H](N)[C@@H](C(=O)O)C1 | 25 µM |  | 
CCCN(CCC)C(=O)N1C[C@@H](N)[C@@H](C(=O)O)C1 | 32 µM |  | 
CCN(C(=O)N1C[C@@H](N)[C@@H](C(=O)O)C1)C(C)C | 1.6 µM | 1.06 µM | 
CC(C)N(C(=O)N1C[C@@H](N)[C@@H](C(=O)O)C1)C(C)C | 4 µM |  | 
CC(C)N(CCO)C(=O)N1C[C@@H](N)[C@@H](C(=O)O)C1 | 21 µM |  | 
CC(C)N(CCCC(=O)O)C(=O)N1C[C@@H](N)[C@@H](C(=O)O)C1 | 19 µM |  | 
CC(C)N(CCN)C(=O)N1C[C@@H](N)[C@@H](C(=O)O)C1 | 46 µM |  | 
CCN(C(=O)N1C[C@H](C(=O)O)[C@H](NC(=N)N)C1)C(C)C | 13 µM |  | 

SMILES | IC50 (read-out: IC50) | IC50 (read-out: pIC50 (converted)) | pIC50
CCN(C(=O)N1C[C@H](N)[C@H](C(=O)O)[C@@H]1CNC(C)=O)C(C)C | 7.5 µM |  | 
CCC(=O)NC[C@H]1[C@@H](C(=O)O)[C@@H](N)CN1C(=O)N(CC)C(C)C | 16 µM |  | 
C=CC(=O)NC[C@H]1[C@@H](C(=O)O)[C@@H](N)CN1C(=O)N(CC)C(C)C | 96 µM |  | 
CCN(C(=O)N1C[C@H](N)[C@H](C(=O)O)[C@@H]1CNC(=O)C(F)(F)F)C(C)C | 0.28 µM |  | 
CCN(C(=O)N1C[C@H](N)[C@H](C(=O)O)[C@@H]1CNS(C)(=O)=O)C(C)C | 130 µM |  | 
CCC(CC)NC(=O)[C@@H](NC(C)=O)[C@H]1CC(C(=O)O)C[C@@H]1NC(=N)N (stereo partly drawn) | 0.06 µM |  | 
CCC(CC)NC(=O)[C@H](NC(C)=O)[C@H]1CC(C(=O)O)C[C@@H]1NC(=N)N (stereo partly drawn) | 25 µM |  | 
CCN(CC)C(=O)[C@@H](NC(C)=O)[C@H]1CC(C(=O)O)C[C@@H]1NC(=N)N (stereo partly drawn) | 0.07 µM | 0.00701 µM | 
CCCN(CCC)C(=O)[C@@H](NC(C)=O)[C@H]1CC(C(=O)O)C[C@@H]1NC(=N)N (stereo partly drawn) | 0.043 µM |  | 
CC[C@H](C)O[C@@H]1C=C(C(=O)O)C[C@H](N)[C@H]1NC(C)=O | 9 µM | 0.00902 µM | 
CC[C@H](C)O[C@@H]1C=C(C(=O)O)C[C@H](NC(=N)N)[C@H]1NC(C)=O | 0.5 µM | 0.0005 µM | 
CC(=O)N[C@@H]1[C@@H](N)CC(C(=O)O)=C[C@H]1OC(C)C | 0.001 µM |  | 
CC(=O)N[C@H]1[C@H](OC(C)C)C(C)=C(C(=O)O)C[C@@H]1N | 2.3 µM |  | 
CC(=O)N[C@H]1[C@H](OC(C)C)C(F)=C(C(=O)O)C[C@@H]1N | 0.003 µM |  | 
CC(=O)N[C@@H]1[C@@H](N)[C@H](C)C(C(=O)O)=C[C@H]1OC(C)C | 1.5 µM |  | 
CCCC[C@@H](NC(C)=O)[C@@H]1CC(C(=O)O)C[C@@H]1NC(=N)N (stereo partly drawn) | 0.013 µM |  | 
CCCC[C@@H](NC(C)=O)[C@@H]1CC(C(=O)O)C[C@H]1NC(=N)N (stereo partly drawn) | 14.6 µM |  | 
CCCN(CCC)C(=O)[C@@H](NC(C)=O)[C@H]1C[C@](O)(C(=O)O)C[C@@H]1NC(=N)N | 4.9 µM |  | 
CCCN(CCC)C(=O)[C@@H](NC(C)=O)[C@H]1C[C@@](O)(C(=O)O)C[C@@H]1NC(=N)N | 2300 µM |  | 
CCCCCCCCCO[C@@H]1C=C(C(=O)O)C[C@H](N)[C@H]1NC(C)=O | 210 µM | 0.21 µM | 

SMILES | IC50 (read-out: IC50) | IC50 (read-out: pIC50 (converted)) | pIC50
CC[C@@H](CC1CCCCC1)O[C@@H]1C=C(C(=O)O)C[C@H](N)[C@H]1NC(C)=O | 16 µM | 0.016 µM | 
CC(C)N(CCCCC(=O)O)C(=O)N1C[C@@H](N)[C@@H](C(=O)O)C1 | 1.3 µM |  | 
CC(C)N(CCc1ccccn1)C(=O)N1C[C@@H](N)[C@@H](C(=O)O)C1 | 1.3 µM |  | 
CC[C@@H](Cc1ccccc1)O[C@@H]1C=C(C(=O)O)C[C@H](N)[C@H]1NC(C)=O | 620 µM | 0.621 µM | 
CC(C)N(CCCO)C(=O)N1C[C@@H](N)[C@@H](C(=O)O)C1 |  |  | 5.677
CC(C)N(CCCCCO)C(=O)N1C[C@@H](N)[C@@H](C(=O)O)C1 | 2 µM |  | 
CC(=O)N[C@@H]1[C@@H](N)CC(C(=O)O)=C[C@H]1OC1CCCCC1 | 60 µM | 0.0601 µM | 
CCCO[C@@H]1C=C(C(=O)O)C[C@H](N)[C@H]1NC(C)=O | 180 µM | 0.18 µM | 
CC[C@H](CCc1ccccc1)O[C@@H]1C=C(C(=O)O)C[C@H](N)[C@H]1NC(C)=O | 12 µM | 0.012 µM | 
CC(=O)N[C@@H]1[C@@H](N)CC(C(=O)O)=C[C@H]1OCC(C)C | 200 µM | 0.2 µM | 
CCCCO[C@@H]1C=C(C(=O)O)C[C@H](N)[C@H]1NC(C)=O | 300 µM | 0.301 µM | 
CC(=O)N[C@@H]1[C@@H](N)CC(C(=O)O)=C[C@H]1OCCCc1ccc(-c2ccccc2)cc1 | 90 µM | 0.0902 µM | 
CC(=O)N[C@H]1[C@H](O)C=C(C(=O)O)C[C@@H]1N | 6300 µM |  | 
CC[C@@H](CCc1ccccc1)O[C@@H]1C=C(C(=O)O)C[C@H](N)[C@H]1NC(C)=O | 0.3 µM | 0.000301 µM | 
CCCCCCCCO[C@@H]1C=C(C(=O)O)C[C@H](N)[C@H]1NC(C)=O | 180 µM | 0.18 µM | 
CCCCO[C@@H]1C=C(C(=O)O)C[C@H](N=C(N)N)[C@H]1NC(C)=O | 3 µM | 0.00301 µM | 
CCCCCCCO[C@@H]1C=C(C(=O)O)C[C@H](N)[C@H]1NC(C)=O | 270 µM | 0.27 µM | 
CCCCCCO[C@@H]1C=C(C(=O)O)C[C@H](N)[C@H]1NC(C)=O | 150 µM | 0.15 µM | 
CCCCCO[C@@H]1C=C(C(=O)O)C[C@H](N)[C@H]1NC(C)=O | 200 µM | 0.2 µM | 
